Measured values published in PubChem BioAssay AID328 (DTP/NCI, 2004).
“And” between values parts separate entries of the source, which are not always exact repeats. Identical values can stand only once. Inconclusive results and toxic doses are left out. Starred links: 1 amine or outer side, 2 acyl side, 3 side chain; linkers in the order of their positions; H or OH if unused. Positions of bridges follow the written chain, without caps; N, C: chain ends. Non-standard residues stand in square brackets, D forms with d. Residues, ends and D or L forms follow the SMILES beside them. Chains are numbered I, II in the order given. Actinocin(1to9) = Cc1c2oc3c(C)ccc(C(=O)[*:2])c3nc-2c(C(=O)[*:1])c(N)c1=O; X2 = CC(=O)OC1CC(C)N([*:1])C1C(=O)[*:2]; X1 = CC1CC(=O)C(C(=O)[*:2])N1[*:1]; NMeV = CN[CH](C(=O)O)C(C)C; NMeA = CN[CH](C)C(=O)O; Sar = CNCC(=O)O

Tested on: BDF1 mice, P388 leukemia ip, median survival T/C
Assay: NCI In Vivo Anticancer Drug Screen. Data for tumor model P388 Leukemia (intraperitoneal) in B6D2F1 (BDF1) mice
Conditions: endpoint: median survival time, higher = longer survival
Procedure, shortened: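 T/C = treated-group survival ÷ vehicle-control survival; tumour transplanted into mice before dosing.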

[1] = dose: 100.0 mg/kg/injection, schedule: Q04DX003 (ip), vehicle: saline with Tween-80
[2] = dose: 200.0 mg/kg/injection, schedule: Q04DX003 (ip), vehicle: saline with Tween-80
[3] = dose: 400.0 mg/kg/injection, schedule: Q04DX003 (ip), vehicle: saline with Tween-80
[4] = dose: 200.0 mg/kg/injection, schedule: Q04DX003 (ip), vehicle: Klucel (hydroxypropylcellulose) (HPC)
[5] = dose: 400.0 mg/kg/injection, schedule: Q04DX003 (ip), vehicle: Klucel (hydroxypropylcellulose) (HPC)
[6] = dose: 100.0 mg/kg/injection, schedule: Q04DX003 (ip), vehicle: saline
[7] = dose: 200.0 mg/kg/injection, schedule: Q04DX003 (ip), vehicle: saline
[8] = dose: 50.0 mg/kg/injection, schedule: Q01DX009 (ip), vehicle: saline
[9] = dose: 100.0 mg/kg/injection, schedule: Q01DX009 (ip), vehicle: saline
[10] = dose: 12.5 mg/kg/injection, schedule: Q01DX009 (ip), vehicle: Klucel (hydroxypropylcellulose) (HPC)
[11] = dose: 25.0 mg/kg/injection, schedule: Q01DX009 (ip), vehicle: Klucel (hydroxypropylcellulose) (HPC)

In the case of CC(=O)OC1CC(C)N2C(=O)C(C(C)C)NC(=O)C(NC(=O)c3ccc(C)c4oc5c(C)c(=O)c(N)c(C(=O)NC6C(=O)NC(C(C)C)C(=O)N7C(C)CC(=O)C7C(=O)N(C)CC(=O)N(C)C(C)C(=O)OC6C)c-5nc34)C(C)OC(=O)C(C(C)C)N(C)C(=O)CN(C)C(=O)C12 (stereo unspecified) (I: TV[X1][Sar][NMeA] / II: TV[X2][Sar][NMeV]; ester I:1-I:C, II:1-II:C; linker I:N-II:N via Actinocin(1to9); configuration not given here), the T/C (dose: 0.05 mg/kg/injection, schedule: Q01DX009 (ip), vehicle: saline + alcohol) is reported as 100 % of control, the T/C (dose: 0.1 mg/kg/injection, schedule: Q01DX009 (ip), vehicle: saline + alcohol) is reported as 117 % of control and the T/C (dose: 0.15 mg/kg/injection, schedule: Q04DX003 (ip), vehicle: saline + alcohol) is reported as 98 % of control. The T/C (dose: 0.3 mg/kg/injection, schedule: Q04DX003 (ip), vehicle: saline + alcohol) was 113 % of control, the T/C (dose: 0.4 mg/kg/injection, schedule: Q01DX009 (ip), vehicle: saline + alcohol) was 156 % of control and the T/C (dose: 0.8 mg/kg/injection, schedule: Q01DX009 (ip), vehicle: saline + alcohol) was 189 % of control. For the same compound, the T/C (dose: 1.2 mg/kg/injection, schedule: Q04DX003 (ip), vehicle: saline + alcohol) was 153 % of control, the T/C (dose: 2.4 mg/kg/injection, schedule: Q04DX003 (ip), vehicle: saline + alcohol) was 202 % of control and the T/C (dose: 6.4 mg/kg/injection, schedule: Q01DX001 (ip), vehicle: saline + alcohol) was 159 % of control.
For NC(=O)c1ncccc1C(=O)O, the T/C (dose: 100.0 mg/kg/injection, schedule: Q01DX001 (ip), vehicle: saline with Tween-80) was 103 % of control, the T/C (dose: 200.0 mg/kg/injection, schedule: Q01DX001 (ip), vehicle: saline with Tween-80) was 100 % of control and the T/C (dose: 400.0 mg/kg/injection, schedule: Q01DX001 (ip), vehicle: saline with Tween-80) was 96 % of control.
For CN=C1c2ccccc2C2(c3ccccc3)C1N2C (stereo unspecified), the T/C (dose: 37.5 mg/kg/injection, schedule: Q01DX009 (ip), vehicle: saline with Tween-80) was 104 % of control, the T/C (dose: 75.0 mg/kg/injection, schedule: Q01DX009 (ip), vehicle: saline with Tween-80) was 109 % of control and the T/C (dose: 150.0 mg/kg/injection, schedule: Q01DX009 (ip), vehicle: saline with Tween-80) was 118 % of control.
With N#CN(Cc1ccc(Cl)cc1Cl)C(=O)OCOc1ccc(Cl)cc1 the T/C [1] was 100 % of control, the T/C [2] was 90 % of control and the T/C [3] was 109 % of control.
For CCCC[N+](CCCC)(CCCC)CCCC.Cc1ccc([SH2+])c([SH2+])c1.Cc1ccc([SH2+])c([SH2+])c1.[Fe+3], the T/C (dose: 45.0 mg/kg/injection, schedule: Q04DX003 (ip), vehicle: Klucel (hydroxypropylcellulose) (HPC)) was 109 % of control, the T/C (dose: 65.0 mg/kg/injection, schedule: Q04DX003 (ip), vehicle: Klucel (hydroxypropylcellulose) (HPC)) was 118 % of control and the T/C (dose: 100.0 mg/kg/injection, schedule: Q01DX001 (ip), vehicle: other) was 112 % of control. For the same compound, the T/C (dose: 150.0 mg/kg/injection, schedule: Q04DX003 (ip), vehicle: Klucel (hydroxypropylcellulose) (HPC)) was 118 % of control, the T/C (dose: 200.0 mg/kg/injection, schedule: Q01DX001 (ip), vehicle: other) was 112 % of control and the T/C [4] was 90 % of control and 120 % of control. For the same compound, the T/C (dose: 400.0 mg/kg/injection, schedule: Q01DX001 (ip), vehicle: other) was 108 % of control and the T/C [5] was 120 % of control.
With O=C(O)C1(C(=O)O)CC2CC=CCC2C1 (stereo unspecified) the T/C [6] was 110 % of control and the T/C [7] was 120 % of control.
For O=C(O)c1ccc(N2C(=O)c3ccccc3C2=O)cc1[N+](=O)[O-], the T/C [8] was 106 % of control, the T/C [9] was 107 % of control and the T/C [6] was 99 % of control. The T/C (dose: 200.0 mg/kg/injection, schedule: Q01DX009 (ip), vehicle: saline) was 111 % of control, the T/C [7] was 105 % of control and the T/C (dose: 400.0 mg/kg/injection, schedule: Q04DX003 (ip), vehicle: saline) was 99 % of control.
COc1cc2c(cc1OC)-c1cc3cc(OC)c(OC)cc3c(CCC(=O)O)[n+]1CC2 was tested, and the T/C (dose: 75.0 mg/kg/injection, schedule: Q01DX009 (ip), vehicle: Klucel (hydroxypropylcellulose) (HPC)) was 101 % of control and the T/C (dose: 150.0 mg/kg/injection, schedule: Q01DX009 (ip), vehicle: Klucel (hydroxypropylcellulose) (HPC)) was 101 % of control.
CC(=O)c1cccc(NC2C(N)C(NC(=O)N(C)C)(C(C)O)C(C)(O)C2(O)COC(=O)c2c(C)cccc2O)c1 (stereo unspecified) was tested, and the T/C (dose: 5.4 mg/kg/injection, schedule: Q04DX003 (ip), vehicle: alkali diluted with saline) was 167 % of control, the T/C (dose: 6.5 mg/kg/injection, schedule: Q04DX003 (ip), vehicle: alkali diluted with saline) was 163 % of control and the T/C (dose: 8.64 mg/kg/injection, schedule: Q04DX003 (ip), vehicle: alkali diluted with saline) was 159 % of control. The T/C (dose: 9.0 mg/kg/injection, schedule: Q04DX003 (ip), vehicle: alkali diluted with saline) was 170 % of control and the T/C (dose: 10.8 mg/kg/injection, schedule: Q04DX003 (ip), vehicle: alkali diluted with saline) was 169 % of control.
With CC(=O)c1cnn(-c2ccccc2)c1C the T/C (dose: 100.0 mg/kg/injection, schedule: Q01DX001 (ip), vehicle: Klucel (hydroxypropylcellulose) (HPC)) was 104 % of control, the T/C (dose: 100.0 mg/kg/injection, schedule: Q01DX009 (ip), vehicle: other) was 105 % of control and the T/C (dose: 100.0 mg/kg/injection, schedule: Q04DX003 (ip), vehicle: Klucel (hydroxypropylcellulose) (HPC)) was 104 % of control. For the same compound, the T/C (dose: 200.0 mg/kg/injection, schedule: Q01DX001 (ip), vehicle: Klucel (hydroxypropylcellulose) (HPC)) was 109 % of control, the T/C (dose: 200.0 mg/kg/injection, schedule: Q01DX009 (ip), vehicle: other) was 100 % of control and the T/C [4] was 86 % of control. For the same compound, the T/C (dose: 400.0 mg/kg/injection, schedule: Q01DX001 (ip), vehicle: Klucel (hydroxypropylcellulose) (HPC)) was 109 % of control, the T/C (dose: 400.0 mg/kg/injection, schedule: Q01DX009 (ip), vehicle: other) was 100 % of control and the T/C [5] was 90 % of control.
In the case of CCN1CCC(O)(c2ccc(Br)cc2)C1 (stereo unspecified), the T/C [8] is reported as 106 % of control and the T/C [9] is reported as 97 % of control.
In the case of O=C(O)CC/C(=N\O)c1cccc([N+](=O)[O-])c1, the T/C [1] is reported as 100 % of control, the T/C [2] is reported as 100 % of control and the T/C [3] is reported as 95 % of control.
With OC1COC(O)C(O)C1O (stereo unspecified) the T/C (dose: 250.0 mg/kg/injection, schedule: Q04DX003 (ip), vehicle: saline) was 102 % of control, the T/C (dose: 500.0 mg/kg/injection, schedule: Q04DX003 (ip), vehicle: saline) was 100 % of control and the T/C (dose: 1000.0 mg/kg/injection, schedule: Q04DX003 (ip), vehicle: saline) was 100 % of control. For the same compound, the T/C (dose: 2000.0 mg/kg/injection, schedule: Q04DX003 (ip), vehicle: saline) was 111 % of control.
For COc1ccc2c(c1OC)C(=O)O[C@@H]2[C@H]1c2c(cc3c(c2OC)OCO3)CCN1C, the T/C (dose: 31.3 mg/kg/injection, schedule: Q01DX010 (ip), vehicle: saline) was 95 % of control, the T/C (dose: 62.5 mg/kg/injection, schedule: Q01DX010 (ip), vehicle: saline) was 104 % of control and the T/C (dose: 125.0 mg/kg/injection, schedule: Q01DX010 (ip), vehicle: saline) was 100 % of control. For the same compound, the T/C (dose: 250.0 mg/kg/injection, schedule: Q01DX010 (ip), vehicle: saline) was 100 % of control.
C1=CC2(OCCO2)C2CC=CC3(OCCO3)C2C1 (stereo unspecified) was tested, and the T/C [10] was 114 % of control, the T/C [11] was 110 % of control and 123 % of control and the T/C (dose: 200.0 mg/kg/injection, schedule: Q01DX009 (ip), vehicle: Klucel (hydroxypropylcellulose) (HPC)) was 117 % of control.
For O=[N+]([O-])c1cnc2ccnn2c1, the T/C [10] was 100 % of control, the T/C [11] was 100 % of control and the T/C (dose: 50.0 mg/kg/injection, schedule: Q01DX009 (ip), vehicle: Klucel (hydroxypropylcellulose) (HPC)) was 100 % of control. For the same compound, the T/C (dose: 100.0 mg/kg/injection, schedule: Q01DX009 (ip), vehicle: Klucel (hydroxypropylcellulose) (HPC)) was 95 % of control.
In the case of CC(C)(O)c1ccccc1S(=O)(=O)c1ccccc1C(C)(C)O, the T/C (dose: 100.0 mg/kg/injection, schedule: Q04DX002 (ip), vehicle: saline with Tween-80) is reported as 94 % of control, the T/C (dose: 200.0 mg/kg/injection, schedule: Q04DX002 (ip), vehicle: saline with Tween-80) is reported as 93 % of control and the T/C (dose: 400.0 mg/kg/injection, schedule: Q04DX002 (ip), vehicle: saline with Tween-80) is reported as 89 % of control.
With O=C(O)C(=O)O.[U] the T/C (dose: 25.0 mg/kg/injection, schedule: Q04DX003 (ip), vehicle: saline with Tween-80) was 100 % of control.
With CCOC(=O)c1sc2nc(C)cc(C)c2c1N the T/C (dose: 100.0 mg/kg/injection, schedule: Q01DX005 (ip), vehicle: saline with Tween-80) was 100 % of control and the T/C (dose: 200.0 mg/kg/injection, schedule: Q01DX005 (ip), vehicle: saline with Tween-80) was 110 % of control.
